Several values for one entry are separate records, joined by “and”; a condition that tells them apart may be missing. Identical values can stand only once. Entries after “also recorded” stand apart in the source; their conditions may differ. Like-named read-outs stand apart in the source and are kept apart here.
What was measured:
[1] = biological target: FtfL from Vibrio cholerae (Vibrio cholerae, UniProt Q9KLX7); experiment: Inhibition of FtfL enzymatic activity; type: biochemical
[2] = tested on: Lactobacillus fermentum CGMCC 1.1880; experiment: Effect of BBR on the growth of probiotics; conditions: L. fermentum CGMCC 1.1880
[3] = tested on: Lactobacillus reuteri DSM 17938; experiment: Effect of BBR on the growth of probiotics; conditions: L. reuteri DSM 17938
[4] = tested on: Clostridium symbiosum ATCC 14940; experiment: Growth inhibition of CRC pathogenic bacteria by BBR; conditions: C. symbiosum ATCC 14940; 0.3 mM and 0.6 mM BBR
[5] = tested on: Peptostreptococcus anaerobius ATCC 27337; experiment: as above; conditions: P. anaerobius ATCC 27337; 0.3 mM and 0.6 mM BBR
[6] = biological target: T1, PaFtfL (Peptostreptococcus anaerobius, UniProt A0A379CIH2); conditions: 40 μM BBR
T1 sequence (A0A379CIH2 1-558): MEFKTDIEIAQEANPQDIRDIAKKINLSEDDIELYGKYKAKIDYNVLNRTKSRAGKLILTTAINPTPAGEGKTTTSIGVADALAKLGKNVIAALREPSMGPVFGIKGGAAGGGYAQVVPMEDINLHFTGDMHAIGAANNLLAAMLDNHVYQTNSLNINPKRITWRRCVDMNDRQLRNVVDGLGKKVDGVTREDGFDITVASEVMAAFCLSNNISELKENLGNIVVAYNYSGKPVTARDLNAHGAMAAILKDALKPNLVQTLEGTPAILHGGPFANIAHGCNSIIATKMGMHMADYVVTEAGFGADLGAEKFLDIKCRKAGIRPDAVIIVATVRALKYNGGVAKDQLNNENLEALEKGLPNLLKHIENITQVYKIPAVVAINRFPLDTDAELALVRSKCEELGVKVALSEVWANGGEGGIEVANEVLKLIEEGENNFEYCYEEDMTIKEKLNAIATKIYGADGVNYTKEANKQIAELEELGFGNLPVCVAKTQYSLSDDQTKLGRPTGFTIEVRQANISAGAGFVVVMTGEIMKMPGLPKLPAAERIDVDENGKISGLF

[7] = tested on: Fusobacterium nucleatum ATCC 10953; experiment: Growth inhibition of CRC pathogenic bacteria by BBR; conditions: F. nucleatum ATCC 10953; 0.3 mM and 0.6 mM BBR
[8] = biological target: FtfL from Clostridioides difficile (Clostridioides difficile, UniProt Q189R2); experiment: Inhibition of FtfL enzymatic activity; type: biochemical
[9] = biological target: FtfL from Fusobacterium nucleatum (Fusobacterium nucleatum, UniProt Q8RHF4); experiment: Inhibition of FtfL enzymatic activity; type: biochemical
[10] = biological target: T2, hsMTHFD1 (Homo sapiens, UniProt P11586); experiment: Inhibition of hsMTHFD1 ligase activity; type: biochemical; conditions: hsMTHFD1, 0.4 mM BBR
T2 construct: His6 tag with thrombin site of pET28a (inferred) (N); made in house; host or cells: E. coli BL21 (DE3)
Description: (§1) Then, the reaction was initiated by adding substrates (2 mM tetrahydrofolate, 10 mM MgCl2, 40 mM sodium formate, and 5 mM ATP).
(§2) The product was detected with a maximum absorbance at 350 nm (ε = 24.9 mM^−1 cm^−1) using FLUOstar OPTIMA (BMG LABTECH, Offenburgh, Germany). The reaction was performed at 30 °C. The control reaction was performed by replacing BBR with DMSO. […] Data analysis was performed in GraphPad Prism 7.0.

[11] = tested on: Streptococcus faecalis ATCC 19433; experiment: Growth inhibition of CRC pathogenic bacteria by BBR; conditions: S. faecalis ATCC 19433; 0.3 mM and 0.6 mM BBR
[12] = tested on: Lactobacillus bulgaricus BD 15; experiment: Effect of BBR on the growth of probiotics; conditions: L. bulgaricus BD 15
[13] = tested on: Lactobacillus plantarum DSM 13171; experiment: Effect of BBR on the growth of probiotics; conditions: L. plantarum DSM 13171
[14] = biological target: T2, hsMTHFD1; conditions: BLI, 1:1 binding model
Description: (§3) A streptavidin matrix-coated sensor chip (SA chip) was firstly equilibrated with buffer A (lysis buffer with 0.05% Tween 20) followed with the immobilization BBP (200 μM) on the SA chip. Next, proteins with increasing concentrations (0.23, 0.91, 3.63, 14.50, and 58.00 μM) were passed on to the chip for the measurement of changes in response unit (nm). The program comprises the stabilization of the baseline with the buffer A for 1 min, 6 min incubation of the BBP with the SA chip for immobilization, stabilizing the baseline again for 3 min, association enabling interaction between proteins and compounds for 4 min, and dissociation for 4 min followed by a regeneration step. […] Raw data were pre-processed, analyzed, and fitted using the 1:1 binding model in the manufacturer’s software (9.0, Pall ForteBio Corp, Menlo Park, CA, USA) to generate kinetic parameters.

[15] = biological target: T3, hsMTHFD1L (Homo sapiens, UniProt Q6UB35); conditions: BLI, 1:1 binding model
Description: as §3

[16] = biological target: T3, hsMTHFD1L; experiment: Inhibition of hsMTHFD1L ligase activity; type: biochemical; conditions: 0.4 mM BBR
Description: as §1, §2

[17] = tested on: Lactococcus lactis DSM 20481; experiment: Growth inhibition of CRC pathogenic bacteria by BBR; conditions: L. lactis DSM 20481; 0.3 mM and 0.6 mM BBR
[18] = tested on: Lactobacillus acidophilus ATCC 4356; experiment: Effect of BBR on the growth of probiotics; conditions: L. acidophilus ATCC 4356
[19] = biological target: T1, PaFtfL; parameters: species or system P. anaerobius; conditions: BLI, wildtype PaFtfL, immobilized BBP, 1:1 binding model
Description: as §3

[20] = biological target: FtfL from Clostridium perfringens (Clostridium perfringens, UniProt Q0TMI3); experiment: biochemical
[21] = biological target: FtfL from Bacteroides fragilis (Bacteroides fragilis, UniProt Q64U80); experiment: Inhibition of FtfL enzymatic activity; type: biochemical
Description: (§4) The activities of the FtfL enzymes were measured according to the protocol described previously.
(§5) Then, the reaction was initiated by adding substrates (0.1 mM tetrahydrofolate, 2 mM MgCl2, 0.05 mM ATP, and 8 mM sodium formate).
as §2

[22] = biological target: FtfL from Lactococcus lactis (Lactococcus lactis subsp. lactis, UniProt Q9CH07); experiment: Inhibition of FtfL enzymatic activity; type: biochemical
Description: as §4, §5, §2

[23] = biological target: T1, PaFtfL; experiment: Inhibition of FtfL enzymatic activity; type: biochemical; conditions: Inhibited by BBR (IC50), FtfL from Peptostreptococcus anaerobius, 20 nM enzyme
Description: as §4, §5, §2

[24] = biological target: FtfL from Clostridium ljungdahlii (Clostridium ljungdahlii, UniProt D8GTX8); experiment: Inhibition of FtfL enzymatic activity; type: biochemical
Description: as §4, §5, §2

[25] = biological target: FtfL from Clostridium symbiosum (Clostridium symbiosum, UniProt E7GR72); experiment: Inhibition of FtfL enzymatic activity; type: biochemical
Description: as §4, §5, §2

[26] = tested on: FtfL from Clostridium sporogenes; experiment: Inhibition of FtfL enzymatic activity; type: biochemical; conditions: ns = no significance, not inhibited by BBR
Description: as §4, §5, §2

[27] = biological target: FtfL from Parabacteroides distasonis (Parabacteroides distasonis, UniProt A6LAR6); experiment: Inhibition of FtfL enzymatic activity; type: biochemical
Description: as §4, §5, §2

[28] = biological target: FtfL from Lactobacillus plantarum (Lactiplantibacillus plantarum, UniProt Q88W76); experiment: Inhibition of FtfL enzymatic activity; type: biochemical; conditions: 100 nM enzyme
Description: as §4, §5, §2

[29] = biological target: PaFtfL Y229A; type: binding, P. anaerobius; conditions: BLI, allosteric site mutant
Description: as §3

[30] = biological target: PaFtfL Y229A/F383A/W411A; type: binding, P. anaerobius; conditions: BLI, tri-mutant
Description: as §3

[31] = biological target: PaFtfL F383A (Peptostreptococcus anaerobius, UniProt A0A379CIH2, F383A); type: binding, P. anaerobius; conditions: BLI
Description: as §3

[32] = biological target: PaFtfL (P. anaerobius formate tetrahydrofolate ligase) (Peptostreptococcus anaerobius ATCC 27337); experiment: crystal structure; sitting drop vapour diffusion at 22 °C, 10 mg/ml protein; three crystal forms: apo, apo crystals soaked with 1 mM ATP, and protein mixed with 1 mM BBR; protomers A/B and C/D form two dimers that assemble into a tetramer

T2 sequence (P11586 whole entry): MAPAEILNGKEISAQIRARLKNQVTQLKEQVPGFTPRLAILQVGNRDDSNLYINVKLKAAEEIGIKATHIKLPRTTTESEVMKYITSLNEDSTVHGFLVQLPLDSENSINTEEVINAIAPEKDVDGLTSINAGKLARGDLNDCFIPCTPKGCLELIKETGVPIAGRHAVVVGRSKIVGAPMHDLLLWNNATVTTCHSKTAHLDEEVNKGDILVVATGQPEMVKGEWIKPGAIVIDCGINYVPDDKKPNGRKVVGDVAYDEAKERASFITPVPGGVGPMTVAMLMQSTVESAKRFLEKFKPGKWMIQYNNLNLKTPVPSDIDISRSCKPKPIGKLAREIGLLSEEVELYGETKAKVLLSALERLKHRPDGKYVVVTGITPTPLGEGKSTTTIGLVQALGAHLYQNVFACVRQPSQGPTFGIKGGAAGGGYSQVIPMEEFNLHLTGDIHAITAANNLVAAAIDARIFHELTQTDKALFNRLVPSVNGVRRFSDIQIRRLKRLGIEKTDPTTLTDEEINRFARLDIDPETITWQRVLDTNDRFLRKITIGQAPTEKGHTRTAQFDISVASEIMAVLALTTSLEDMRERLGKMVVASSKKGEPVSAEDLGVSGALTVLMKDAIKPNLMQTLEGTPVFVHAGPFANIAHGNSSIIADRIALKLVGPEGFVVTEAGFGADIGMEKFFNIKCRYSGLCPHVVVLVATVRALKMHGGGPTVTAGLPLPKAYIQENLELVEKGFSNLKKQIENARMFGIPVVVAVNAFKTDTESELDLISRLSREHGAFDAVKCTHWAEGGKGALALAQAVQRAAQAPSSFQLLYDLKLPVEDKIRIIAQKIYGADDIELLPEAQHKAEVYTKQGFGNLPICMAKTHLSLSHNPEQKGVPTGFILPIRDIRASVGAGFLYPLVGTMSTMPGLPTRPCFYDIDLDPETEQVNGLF
T3 sequence (Q6UB35 349-978 limits assumed): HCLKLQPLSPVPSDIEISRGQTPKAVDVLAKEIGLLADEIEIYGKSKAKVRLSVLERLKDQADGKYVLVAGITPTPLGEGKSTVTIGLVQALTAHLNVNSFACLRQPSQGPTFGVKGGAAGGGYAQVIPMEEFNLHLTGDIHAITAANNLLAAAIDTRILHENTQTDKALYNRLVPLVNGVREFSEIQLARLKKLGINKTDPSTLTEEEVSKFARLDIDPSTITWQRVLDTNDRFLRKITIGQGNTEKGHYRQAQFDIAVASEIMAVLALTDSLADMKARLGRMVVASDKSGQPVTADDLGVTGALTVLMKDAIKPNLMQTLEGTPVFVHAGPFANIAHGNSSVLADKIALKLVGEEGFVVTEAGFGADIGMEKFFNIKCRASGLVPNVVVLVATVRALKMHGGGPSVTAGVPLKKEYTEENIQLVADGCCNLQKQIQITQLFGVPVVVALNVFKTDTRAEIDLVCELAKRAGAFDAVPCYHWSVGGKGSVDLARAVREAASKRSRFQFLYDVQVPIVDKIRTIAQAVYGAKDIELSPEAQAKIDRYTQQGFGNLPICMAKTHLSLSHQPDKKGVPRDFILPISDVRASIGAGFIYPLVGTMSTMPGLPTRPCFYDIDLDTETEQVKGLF
FtfL from Lactobacillus plantarum, sequence (Q88W76 whole entry): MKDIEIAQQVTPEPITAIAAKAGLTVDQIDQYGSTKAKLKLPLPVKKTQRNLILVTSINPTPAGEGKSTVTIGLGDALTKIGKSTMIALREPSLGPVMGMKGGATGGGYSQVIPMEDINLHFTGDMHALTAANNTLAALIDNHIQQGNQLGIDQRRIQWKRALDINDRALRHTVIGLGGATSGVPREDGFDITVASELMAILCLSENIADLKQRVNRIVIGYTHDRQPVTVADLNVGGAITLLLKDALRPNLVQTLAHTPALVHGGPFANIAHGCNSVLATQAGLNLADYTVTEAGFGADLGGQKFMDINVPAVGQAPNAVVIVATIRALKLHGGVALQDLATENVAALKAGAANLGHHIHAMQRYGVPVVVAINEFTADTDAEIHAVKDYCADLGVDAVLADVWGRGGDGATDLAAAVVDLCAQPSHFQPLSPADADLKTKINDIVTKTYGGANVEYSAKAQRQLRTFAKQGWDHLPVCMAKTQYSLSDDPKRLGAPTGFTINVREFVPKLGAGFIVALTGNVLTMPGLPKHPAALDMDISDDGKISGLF
FtfL from Clostridium ljungdahlii, sequence (D8GTX8 entry or part of it): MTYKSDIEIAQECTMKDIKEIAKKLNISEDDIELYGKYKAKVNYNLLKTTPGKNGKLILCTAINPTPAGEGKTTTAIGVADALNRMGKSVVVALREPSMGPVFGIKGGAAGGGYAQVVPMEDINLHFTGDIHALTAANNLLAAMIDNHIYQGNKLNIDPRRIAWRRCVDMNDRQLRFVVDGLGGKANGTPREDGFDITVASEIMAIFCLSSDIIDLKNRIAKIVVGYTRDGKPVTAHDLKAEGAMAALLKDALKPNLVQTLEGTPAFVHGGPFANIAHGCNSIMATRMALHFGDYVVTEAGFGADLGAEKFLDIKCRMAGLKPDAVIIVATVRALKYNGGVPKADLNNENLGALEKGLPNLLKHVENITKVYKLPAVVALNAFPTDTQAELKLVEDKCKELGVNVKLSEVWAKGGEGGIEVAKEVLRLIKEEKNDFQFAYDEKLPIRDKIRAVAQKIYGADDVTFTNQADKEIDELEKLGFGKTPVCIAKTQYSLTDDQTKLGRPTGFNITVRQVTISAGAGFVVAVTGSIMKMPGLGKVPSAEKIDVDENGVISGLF
FtfL from Lactococcus lactis, sequence (Q9CH07 whole entry): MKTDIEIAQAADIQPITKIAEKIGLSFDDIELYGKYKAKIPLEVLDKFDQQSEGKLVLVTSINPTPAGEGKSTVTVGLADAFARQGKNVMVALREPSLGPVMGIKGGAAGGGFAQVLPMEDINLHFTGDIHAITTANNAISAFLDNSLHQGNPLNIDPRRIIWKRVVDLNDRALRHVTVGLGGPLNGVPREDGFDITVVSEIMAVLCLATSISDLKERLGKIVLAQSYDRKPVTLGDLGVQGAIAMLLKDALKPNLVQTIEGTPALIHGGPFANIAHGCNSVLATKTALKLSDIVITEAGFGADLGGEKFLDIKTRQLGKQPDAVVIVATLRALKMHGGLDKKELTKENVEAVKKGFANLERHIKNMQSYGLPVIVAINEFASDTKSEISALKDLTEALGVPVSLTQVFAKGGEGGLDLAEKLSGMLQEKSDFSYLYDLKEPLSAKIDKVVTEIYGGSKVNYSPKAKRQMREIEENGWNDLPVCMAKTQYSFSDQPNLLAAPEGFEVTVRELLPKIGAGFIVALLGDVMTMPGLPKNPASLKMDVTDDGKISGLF

## COc1ccc2cc3[n+](cc2c1OC)CCc1cc2c(cc1-3)OCO2 [BBR, Berberine]
[1]
  IC50: 130 ± 12.3 µM
[2]
  effect on bacterial growth: little effect
[3]
  effect on bacterial growth: little effect
[4]
  effect on bacterial growth: dose-dependent inhibition; also recorded: inhibits the growth
[5]
  effect on bacterial growth: dose-dependent inhibition; also recorded: inhibits the growth
[6]; substrate ATP
  apparent Kcat of PaFtfL: 16.7 ± 0.83 s⁻¹
  apparent Vmax of PaFtfL: 0.010 ± 0.0005 mM/min
[6]; substrate THF
  apparent Kcat of PaFtfL: 78.3 ± 6.7 s⁻¹
  apparent Vmax of PaFtfL: 0.047 ± 0.004 mM/min
[7]
  effect on bacterial growth: dose-dependent inhibition; also recorded: inhibits the growth
[8]
  IC50: 158 ± 68.7 µM
[9]
  IC50: 106 ± 27 µM
[10]
  decrease of ligase enzyme activity: 58%
[11]
  effect on bacterial growth: dose-dependent inhibition; also recorded: inhibits the growth
[12]
  effect on bacterial growth: inhibits growth
[13]
  effect on bacterial growth: little effect
[14]
  Kd: 2.3 µM
[15]
  Kd: 0.158 µM
[16]
  decrease of ligase enzyme activity: 36%
[17]
  effect on bacterial growth: dose-dependent inhibition; also recorded: inhibits the growth
[18]
  effect on bacterial growth: promotes growth
[19]
  Kd: 0.674 µM
[20]
  IC50: 105 ± 3.15 µM
[21]
  IC50: 105 ± 69.8 µM
[22]
  IC50: 118 ± 18.5 µM
[23]
  IC50: 62 µM and 62.3 µM
[24]
  IC50: 83.8 ± 10 µM
[25]
  IC50: 129 ± 17.1 µM
[26]
  Inhibited by BBR (IC50): ns
[27]
  IC50: > 200 µM
[28]
  IC50: > 200 µM
[29]
  binding affinity of BBR with PaFtfL Y229A: The affinity is too weak to fit
[30]
  binding affinity of BBR with PaFtfL Y229A/F383A/W411A: non-detectable
[31]; F383A
  reduction of binding affinity versus wildtype PaFtfL: 34 fold
[31]; active site mutant
  Kd: 23.1 µM

## PaFtfL (P. anaerobius formate tetrahydrofolate ligase) (enzyme)
[32]
  stoichiometry N: 4

From article PMC10696740 (BMC Biology, 2023)
